Legend:
[1] = molecular target: T1, Serine/threonine-protein kinase 17B (Homo sapiens) (UniProt O94768); conditions: at 10 µM
T1 sequence (whole entry): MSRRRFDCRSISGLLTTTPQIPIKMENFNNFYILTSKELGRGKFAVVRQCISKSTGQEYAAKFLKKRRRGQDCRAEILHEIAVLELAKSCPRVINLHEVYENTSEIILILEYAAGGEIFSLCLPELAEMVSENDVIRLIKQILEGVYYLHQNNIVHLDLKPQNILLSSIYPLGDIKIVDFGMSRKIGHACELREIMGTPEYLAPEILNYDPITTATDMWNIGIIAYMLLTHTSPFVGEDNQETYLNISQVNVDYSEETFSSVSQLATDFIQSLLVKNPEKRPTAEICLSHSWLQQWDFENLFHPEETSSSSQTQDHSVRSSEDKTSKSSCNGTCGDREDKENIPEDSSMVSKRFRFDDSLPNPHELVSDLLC

[2] = molecular target: Interferon-induced, double-stranded RNA-activated protein kinase (Homo sapiens) (UniProt P19525); experiment: Selectivity interaction (KinomeScan (DiscoverX)) EUB0000229b EIF2AK2; conditions: at 10 µM
[3] = molecular target: T2, Serine/threonine-protein kinase Nek1 (Homo sapiens) (UniProt Q96PY6); experiment: Selectivity interaction (Kinase panel (DSF assay)) EUB0001559a NEK1
T2 sequence (whole entry): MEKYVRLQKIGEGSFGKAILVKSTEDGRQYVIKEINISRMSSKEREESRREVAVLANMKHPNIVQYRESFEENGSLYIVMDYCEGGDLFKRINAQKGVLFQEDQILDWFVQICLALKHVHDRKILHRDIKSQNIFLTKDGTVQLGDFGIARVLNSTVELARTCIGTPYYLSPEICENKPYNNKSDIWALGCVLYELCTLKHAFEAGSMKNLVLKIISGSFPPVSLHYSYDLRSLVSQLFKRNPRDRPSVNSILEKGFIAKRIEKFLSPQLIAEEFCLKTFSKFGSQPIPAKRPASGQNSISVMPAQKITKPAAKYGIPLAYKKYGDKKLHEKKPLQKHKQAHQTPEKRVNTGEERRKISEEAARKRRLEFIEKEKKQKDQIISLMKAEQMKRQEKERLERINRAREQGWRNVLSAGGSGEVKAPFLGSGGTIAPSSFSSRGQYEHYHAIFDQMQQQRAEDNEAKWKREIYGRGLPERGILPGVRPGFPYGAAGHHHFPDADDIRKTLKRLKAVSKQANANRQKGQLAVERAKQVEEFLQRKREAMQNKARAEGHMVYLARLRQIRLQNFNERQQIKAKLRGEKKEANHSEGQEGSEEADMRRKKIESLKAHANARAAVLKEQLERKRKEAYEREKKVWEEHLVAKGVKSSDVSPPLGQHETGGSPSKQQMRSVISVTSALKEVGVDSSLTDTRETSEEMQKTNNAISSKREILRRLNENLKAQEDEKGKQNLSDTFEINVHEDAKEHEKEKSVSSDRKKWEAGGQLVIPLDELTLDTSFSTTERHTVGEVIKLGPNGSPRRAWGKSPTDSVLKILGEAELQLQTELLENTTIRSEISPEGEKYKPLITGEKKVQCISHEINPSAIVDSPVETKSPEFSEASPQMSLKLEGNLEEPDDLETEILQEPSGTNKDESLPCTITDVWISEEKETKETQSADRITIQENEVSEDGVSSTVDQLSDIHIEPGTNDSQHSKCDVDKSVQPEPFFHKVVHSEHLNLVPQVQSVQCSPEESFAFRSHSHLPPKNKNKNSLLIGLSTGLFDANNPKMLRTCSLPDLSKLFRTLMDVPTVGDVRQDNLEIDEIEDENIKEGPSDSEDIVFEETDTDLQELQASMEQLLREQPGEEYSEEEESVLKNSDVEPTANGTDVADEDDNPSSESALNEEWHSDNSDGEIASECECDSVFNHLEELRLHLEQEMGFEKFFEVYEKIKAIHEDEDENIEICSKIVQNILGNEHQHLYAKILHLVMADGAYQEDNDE

[4] = molecular target: Dual specificity protein kinase CLK1 (Homo sapiens, UniProt P49759); experiment: Selectivity interaction (KinomeScan (DiscoverX)) EUB0001079a CLK1; conditions: at 1 µM
[5] = molecular target: Phosphorylase b kinase gamma catalytic chain, skeletal muscle/heart isoform (Homo sapiens) (UniProt Q16816); experiment: Selectivity interaction (KinomeScan (DiscoverX)) EUB0000666a PHKG1; conditions: at 10 µM
[6] = molecular target: CDK1/Cyclin A (Homo sapiens, UniProt P06493+P20248+P78396); experiment: Selectivity interaction (Enzymatic assay (Reaction Biology)) EUB0001632a CDK1; assay type: protein-complex assay
[7] = molecular target: Serine/threonine-protein kinase MRCK alpha (Homo sapiens) (UniProt Q5VT25); experiment: Selectivity interaction (KinomeScan (DiscoverX)) EUB0001049a CDC42BPA; conditions: at 1 µM
[8] = molecular target: Serine/threonine-protein kinase Nek7 (Homo sapiens) (UniProt Q8TDX7); experiment: Selectivity interaction (KinomeScan (DiscoverX)) EUB0000618a NEK7; conditions: at 10 µM
[9] = molecular target: Cyclin-dependent kinase 7 (Homo sapiens, UniProt P50613); experiment: Selectivity interaction (KinomeScan (DiscoverX)) EUB0000618a CDK7; conditions: at 10 µM
[10] = molecular target: T3, Phosphatidylinositol 5-phosphate 4-kinase type-2 gamma (Homo sapiens) (UniProt Q8TBX8); experiment: Selectivity interaction (ActivX KiNativ screen (ex vivo kinase selectivity in human PBMCs)) EUB0001619a PIP4K2C; assay type: cell-based; conditions: PBMC, at 1 µM
T3 sequence (whole entry): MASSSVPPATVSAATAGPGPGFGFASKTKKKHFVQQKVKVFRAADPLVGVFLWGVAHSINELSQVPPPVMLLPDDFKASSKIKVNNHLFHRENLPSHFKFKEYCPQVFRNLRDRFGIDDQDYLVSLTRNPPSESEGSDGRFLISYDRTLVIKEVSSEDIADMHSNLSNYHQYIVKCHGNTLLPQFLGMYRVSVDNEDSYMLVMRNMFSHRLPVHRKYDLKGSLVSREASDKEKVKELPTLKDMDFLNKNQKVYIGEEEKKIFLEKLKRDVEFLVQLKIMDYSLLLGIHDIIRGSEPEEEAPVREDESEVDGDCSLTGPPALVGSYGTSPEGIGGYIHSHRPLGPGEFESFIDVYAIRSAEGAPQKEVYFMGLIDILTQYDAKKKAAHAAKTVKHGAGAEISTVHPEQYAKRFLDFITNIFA

Serine/threonine-protein kinase Nek7 (Homo sapiens), sequence (Q8TDX7 whole entry, looked up): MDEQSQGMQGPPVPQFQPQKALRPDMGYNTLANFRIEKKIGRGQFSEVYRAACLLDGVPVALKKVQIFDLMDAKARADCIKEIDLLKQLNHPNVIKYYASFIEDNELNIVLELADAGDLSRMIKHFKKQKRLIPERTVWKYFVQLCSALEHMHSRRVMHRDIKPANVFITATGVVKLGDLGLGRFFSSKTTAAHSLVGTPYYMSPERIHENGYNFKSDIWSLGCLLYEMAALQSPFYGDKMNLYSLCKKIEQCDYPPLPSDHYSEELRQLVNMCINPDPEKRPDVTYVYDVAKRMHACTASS
Phosphorylase b kinase gamma catalytic chain, skeletal muscle/heart isoform (Homo sapiens), sequence (Q16816 whole entry, looked up, canonical isoform): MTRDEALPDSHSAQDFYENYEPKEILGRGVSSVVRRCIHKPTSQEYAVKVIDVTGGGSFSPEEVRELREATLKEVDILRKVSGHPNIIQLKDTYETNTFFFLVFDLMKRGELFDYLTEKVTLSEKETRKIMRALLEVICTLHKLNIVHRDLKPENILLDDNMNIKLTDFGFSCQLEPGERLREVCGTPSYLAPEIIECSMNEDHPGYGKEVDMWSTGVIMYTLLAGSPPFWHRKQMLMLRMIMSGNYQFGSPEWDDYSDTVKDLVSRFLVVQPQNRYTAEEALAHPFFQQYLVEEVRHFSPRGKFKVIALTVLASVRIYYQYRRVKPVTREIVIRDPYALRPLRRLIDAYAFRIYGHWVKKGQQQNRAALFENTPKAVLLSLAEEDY
Dual specificity protein kinase CLK1, sequence (P49759 whole entry, looked up, canonical isoform): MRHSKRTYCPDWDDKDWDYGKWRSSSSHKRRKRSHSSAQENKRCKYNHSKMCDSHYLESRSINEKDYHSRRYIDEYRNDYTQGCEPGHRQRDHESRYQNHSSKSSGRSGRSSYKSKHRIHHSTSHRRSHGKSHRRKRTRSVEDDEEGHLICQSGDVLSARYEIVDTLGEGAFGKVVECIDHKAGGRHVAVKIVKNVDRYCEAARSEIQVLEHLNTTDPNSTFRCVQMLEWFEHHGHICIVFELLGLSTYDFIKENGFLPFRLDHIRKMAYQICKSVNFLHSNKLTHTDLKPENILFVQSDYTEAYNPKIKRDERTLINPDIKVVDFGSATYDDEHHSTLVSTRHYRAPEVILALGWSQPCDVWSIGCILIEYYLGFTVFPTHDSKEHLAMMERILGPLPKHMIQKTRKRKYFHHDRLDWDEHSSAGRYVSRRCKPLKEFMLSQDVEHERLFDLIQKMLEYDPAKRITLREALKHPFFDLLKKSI
Serine/threonine-protein kinase MRCK alpha (Homo sapiens), sequence (Q5VT25 whole entry): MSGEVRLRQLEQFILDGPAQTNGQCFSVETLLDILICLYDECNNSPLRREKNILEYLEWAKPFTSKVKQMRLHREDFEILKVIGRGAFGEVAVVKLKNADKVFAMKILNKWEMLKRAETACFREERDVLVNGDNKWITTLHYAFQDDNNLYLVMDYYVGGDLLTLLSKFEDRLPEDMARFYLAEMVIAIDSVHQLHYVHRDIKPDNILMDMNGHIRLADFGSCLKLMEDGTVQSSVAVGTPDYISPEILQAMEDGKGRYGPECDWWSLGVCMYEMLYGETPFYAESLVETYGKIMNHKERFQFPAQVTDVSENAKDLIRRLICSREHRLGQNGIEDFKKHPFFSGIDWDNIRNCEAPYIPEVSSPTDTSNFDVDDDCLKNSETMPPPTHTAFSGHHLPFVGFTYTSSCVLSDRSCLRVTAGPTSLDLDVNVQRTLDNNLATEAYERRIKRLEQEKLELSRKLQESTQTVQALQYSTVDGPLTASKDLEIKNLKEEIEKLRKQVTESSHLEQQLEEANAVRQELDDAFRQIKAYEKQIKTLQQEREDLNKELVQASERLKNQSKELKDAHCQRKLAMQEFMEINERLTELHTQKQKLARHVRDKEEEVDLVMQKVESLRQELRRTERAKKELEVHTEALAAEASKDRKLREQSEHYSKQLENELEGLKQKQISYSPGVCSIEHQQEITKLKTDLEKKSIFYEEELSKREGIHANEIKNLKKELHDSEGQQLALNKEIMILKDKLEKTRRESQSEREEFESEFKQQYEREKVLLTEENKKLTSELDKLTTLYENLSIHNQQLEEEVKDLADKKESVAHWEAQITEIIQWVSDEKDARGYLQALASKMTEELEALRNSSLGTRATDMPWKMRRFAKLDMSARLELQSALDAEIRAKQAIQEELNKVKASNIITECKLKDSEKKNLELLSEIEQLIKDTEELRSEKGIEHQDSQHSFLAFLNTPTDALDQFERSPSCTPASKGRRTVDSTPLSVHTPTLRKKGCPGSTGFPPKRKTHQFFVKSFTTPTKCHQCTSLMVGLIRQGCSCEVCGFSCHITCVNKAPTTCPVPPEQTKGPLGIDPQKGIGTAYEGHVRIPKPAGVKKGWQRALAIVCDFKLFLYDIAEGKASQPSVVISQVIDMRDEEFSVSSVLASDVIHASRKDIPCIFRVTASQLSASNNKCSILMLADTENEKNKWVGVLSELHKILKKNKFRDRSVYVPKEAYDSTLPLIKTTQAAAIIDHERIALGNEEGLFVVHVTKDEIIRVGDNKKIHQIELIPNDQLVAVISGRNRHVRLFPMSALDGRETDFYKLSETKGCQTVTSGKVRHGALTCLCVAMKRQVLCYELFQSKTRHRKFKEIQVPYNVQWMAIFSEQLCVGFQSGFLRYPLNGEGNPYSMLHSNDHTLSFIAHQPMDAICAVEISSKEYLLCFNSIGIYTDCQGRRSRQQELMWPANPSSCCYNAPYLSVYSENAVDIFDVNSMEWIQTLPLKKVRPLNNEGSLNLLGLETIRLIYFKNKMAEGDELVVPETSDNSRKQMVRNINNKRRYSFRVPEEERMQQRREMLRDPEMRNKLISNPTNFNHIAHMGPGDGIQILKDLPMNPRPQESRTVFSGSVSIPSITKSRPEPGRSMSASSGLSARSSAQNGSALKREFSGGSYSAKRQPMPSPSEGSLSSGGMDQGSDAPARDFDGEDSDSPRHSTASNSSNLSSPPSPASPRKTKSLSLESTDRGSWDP
Cyclin-dependent kinase 7, sequence (P50613 whole entry): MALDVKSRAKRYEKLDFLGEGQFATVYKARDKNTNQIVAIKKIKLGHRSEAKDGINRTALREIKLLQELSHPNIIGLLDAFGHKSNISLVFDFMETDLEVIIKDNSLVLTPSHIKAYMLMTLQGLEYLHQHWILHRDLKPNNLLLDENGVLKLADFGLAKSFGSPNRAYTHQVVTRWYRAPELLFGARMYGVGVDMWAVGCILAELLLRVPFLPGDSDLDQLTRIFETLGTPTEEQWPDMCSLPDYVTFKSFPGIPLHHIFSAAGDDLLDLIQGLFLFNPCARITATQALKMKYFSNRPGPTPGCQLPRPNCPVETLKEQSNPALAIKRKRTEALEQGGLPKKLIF
Interferon-induced, double-stranded RNA-activated protein kinase (Homo sapiens), sequence (P19525 whole entry): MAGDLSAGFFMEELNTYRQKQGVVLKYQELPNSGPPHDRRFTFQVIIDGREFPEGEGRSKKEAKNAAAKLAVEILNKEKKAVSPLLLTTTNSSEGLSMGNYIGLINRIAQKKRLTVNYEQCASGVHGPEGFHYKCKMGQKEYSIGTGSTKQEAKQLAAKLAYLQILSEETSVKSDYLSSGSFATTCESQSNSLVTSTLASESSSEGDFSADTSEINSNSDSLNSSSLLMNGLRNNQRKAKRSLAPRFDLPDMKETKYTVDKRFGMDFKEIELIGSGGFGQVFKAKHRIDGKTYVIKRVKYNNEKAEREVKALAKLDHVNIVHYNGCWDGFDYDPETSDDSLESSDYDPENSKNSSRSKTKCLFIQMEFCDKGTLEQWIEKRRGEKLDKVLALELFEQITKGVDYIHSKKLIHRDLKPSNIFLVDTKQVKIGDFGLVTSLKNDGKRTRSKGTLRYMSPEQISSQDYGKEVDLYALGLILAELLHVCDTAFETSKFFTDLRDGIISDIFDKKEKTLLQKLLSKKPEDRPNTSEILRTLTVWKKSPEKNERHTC
CDK1/Cyclin A, sequence (P06493 whole entry): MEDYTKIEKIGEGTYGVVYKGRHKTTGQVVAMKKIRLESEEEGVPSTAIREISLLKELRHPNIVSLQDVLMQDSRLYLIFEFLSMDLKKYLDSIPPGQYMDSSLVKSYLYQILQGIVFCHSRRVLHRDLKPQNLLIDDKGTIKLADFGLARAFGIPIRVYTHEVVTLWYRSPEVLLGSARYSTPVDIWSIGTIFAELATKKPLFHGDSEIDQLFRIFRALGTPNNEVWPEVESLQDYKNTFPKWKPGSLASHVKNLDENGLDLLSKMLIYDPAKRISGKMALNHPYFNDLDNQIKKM
CDK1/Cyclin A, sequence (P20248 whole entry): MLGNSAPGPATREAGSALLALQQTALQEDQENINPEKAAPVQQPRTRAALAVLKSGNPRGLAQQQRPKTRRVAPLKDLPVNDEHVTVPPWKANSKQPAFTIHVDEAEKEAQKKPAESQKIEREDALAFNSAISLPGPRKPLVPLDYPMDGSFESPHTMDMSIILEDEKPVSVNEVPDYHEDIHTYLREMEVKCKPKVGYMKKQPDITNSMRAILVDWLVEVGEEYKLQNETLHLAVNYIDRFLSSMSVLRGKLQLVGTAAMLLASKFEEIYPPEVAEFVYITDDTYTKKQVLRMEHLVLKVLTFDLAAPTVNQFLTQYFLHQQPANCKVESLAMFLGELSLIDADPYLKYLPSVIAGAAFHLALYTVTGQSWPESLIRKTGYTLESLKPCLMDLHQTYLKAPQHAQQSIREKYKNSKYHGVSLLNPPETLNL
CDK1/Cyclin A, sequence (P78396 whole entry): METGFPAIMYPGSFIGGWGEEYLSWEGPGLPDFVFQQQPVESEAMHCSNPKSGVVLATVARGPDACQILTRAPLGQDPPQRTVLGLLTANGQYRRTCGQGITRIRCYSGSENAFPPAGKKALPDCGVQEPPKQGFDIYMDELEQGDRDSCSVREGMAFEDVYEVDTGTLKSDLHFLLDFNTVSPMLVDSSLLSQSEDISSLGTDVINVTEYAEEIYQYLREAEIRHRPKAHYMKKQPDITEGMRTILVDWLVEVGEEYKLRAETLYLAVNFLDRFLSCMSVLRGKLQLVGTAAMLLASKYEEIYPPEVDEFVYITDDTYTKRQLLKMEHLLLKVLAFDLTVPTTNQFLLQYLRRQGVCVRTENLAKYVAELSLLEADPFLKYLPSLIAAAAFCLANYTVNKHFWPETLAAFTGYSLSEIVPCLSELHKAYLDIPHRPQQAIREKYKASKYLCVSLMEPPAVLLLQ

CCN(CC)CCCCNc1ncc2cc(-c3cc(OC)cc(OC)c3)c(NC(=O)NC(C)(C)C)nc2n1
% of control [1]: 100%

COc1cc(N(C)c2ccnc3ccc(C(F)(F)F)cc23)cc(OC)c1OC
% binding [2]: 58%

CN(C(=O)c1cnn2cccnc12)c1cc2c(cc1N1CCOCC1)C(=O)N(C[C@@H](F)C(C)(C)O)C2
dTM [3]: 0.4 K

Nc1cnc(N2CCc3cc(S(=O)(=O)Nc4c(F)cc(Cl)cc4F)cc(N4CCCC4=O)c32)nc1 [TP-020n]
% of control [4]: 85%

O=C(NOC[C@H](O)CO)c1ccc(F)c(F)c1Nc1ccc(I)cc1F
% of control [5]: 100%

Cn1cc(-n2cnc3c(NCc4nc5cc(Cl)c(Cl)cc5[nH]4)nc(N4CCOCC4)nc32)cn1
IC50 [6]: > 10 µM

COc1cc(Nc2nc(C)cc(-c3cnn4nc(OC)ccc34)n2)cc(C(F)(F)F)c1
% of control [7]: 92%

O[C@H]1CC[C@H](Nc2ncc3nc(Nc4c(F)cc(F)cc4F)n([C@H]4CCOC4)c3n2)CC1
% of control [8]: 95% | % of control [9]: 100%

N#Cc1cccc(-c2c[nH]c3ncnc(N4CCOCC4)c23)c1
% of inhibition [10]: 54%
